# ChEMBL document CHEMBL1201862, “PubChem BioAssay data set” (2004)
#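 Growth conditions: 96-well plates. Treatment: test compound, 48 hours, 5 concentrations. Analysis: linear interpolation between bracketing concentrations; unreached endpoints set to highest concentration. At the GI50, growth is halved.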 Activity calls are given as the source filed them. No stated cut-off is given here; in the data, active = GI50 up to about 1.1 µM and inactive = higher.
# Tests used:
# Experiment in all cases: growth of human tumour cells (NCI), 48 h
# MDA-N = tested on: MDA-N
# NCI-H226 = tested on: NCI-H226
# OVCAR-8 = tested on: OVCAR-8
# SK-MEL-5 = tested on: SK-MEL-5
# SF-268 = tested on: SF-268
# ACHN = tested on: ACHN
# UACC-257 = tested on: UACC-257
# HOP-92 = tested on: HOP-92
# HCC 2998 = tested on: HCC 2998
# SW-620 = tested on: SW-620
# CCRF-CEM = tested on: CCRF-CEM
# SF-539 = tested on: SF-539
# TK-10 = tested on: TK-10
# NCI-H522 = tested on: NCI-H522
# IGROV-1 = tested on: IGROV-1
# SK-OV-3 = tested on: SK-OV-3
# 786-0 = tested on: 786-0
# OVCAR-4 = tested on: OVCAR-4
# RXF 393 = tested on: RXF 393
# T47D = tested on: T47D
# MOLT-4 = tested on: MOLT-4
# MCF7 = tested on: MCF7
# HCT-15 = tested on: HCT-15
# RPMI-8226 = tested on: RPMI-8226
# SN12C = tested on: SN12C
# COLO 205 = tested on: COLO 205
# HL-60 = tested on: HL-60
# CAKI-1 = tested on: CAKI-1
# U-251 = tested on: U-251
# EKVX = tested on: EKVX
# NCI-H23 = tested on: NCI-H23
# SR = tested on: SR
# Malme-3M = tested on: Malme-3M
# UO-31 = tested on: UO-31
# SF-295 = tested on: SF-295
# HT-29 = tested on: HT-29
# SK-MEL-28 = tested on: SK-MEL-28
# MDA-MB-435 = tested on: MDA-MB-435
# A498 = tested on: A498
# UACC-62 = tested on: UACC-62
# Hs-578T = tested on: Hs-578T
# DU-145 = tested on: DU-145
# OVCAR-5 = tested on: OVCAR-5
# K562 = tested on: K562
# BT-549 = tested on: BT-549
# KM12 = tested on: KM12
# HCT-116 = tested on: HCT-116
# M14 = tested on: M14
# NCI-H460 = tested on: NCI-H460
# A549 = tested on: A549
# SNB-75 = tested on: SNB-75
# SNB-19 = tested on: SNB-19
# MDA-MB-231 = tested on: MDA-MB-231
# NCI/ADR-RES = tested on: NCI/ADR-RES
structure (smiles),measurement,setting,value
Cn1/c(=N\S(=O)(=O)c2ccccc2)[nH]c2ccccc21,GI50,MDA-N,> 100 µM (inactive)
same,GI50,NCI-H226,> 100 µM (inactive)
same,GI50,OVCAR-8,> 100 µM (inactive)
same,GI50,SK-MEL-5,> 100 µM (inactive)
same,GI50,SF-268,58.6 µM (inactive)
same,GI50,ACHN,> 100 µM (inactive)
same,GI50,UACC-257,> 100 µM (inactive)
same,GI50,HOP-92,> 100 µM (inactive)
same,GI50,HCC 2998,> 100 µM (inactive)
same,GI50,SW-620,> 100 µM (inactive)
same,GI50,CCRF-CEM,> 100 µM (inactive)
same,GI50,SF-539,> 100 µM (inactive)
same,GI50,TK-10,> 100 µM (inactive)
same,GI50,NCI-H522,> 100 µM (inactive)
same,GI50,IGROV-1,> 100 µM (inactive)
same,GI50,SK-OV-3,> 100 µM (inactive)
same,GI50,786-0,> 100 µM (inactive)
same,GI50,OVCAR-4,> 100 µM (inactive)
same,GI50,RXF 393,> 100 µM (inactive)
same,GI50,T47D,> 100 µM (inactive)
same,GI50,MOLT-4,> 100 µM (inactive)
same,GI50,MCF7,> 100 µM (inactive)
same,GI50,HCT-15,> 100 µM
same,GI50,RPMI-8226,> 100 µM (inactive)
same,GI50,SN12C,> 100 µM (inactive)
same,GI50,COLO 205,> 100 µM (inactive)
same,GI50,HL-60,> 100 µM (inactive)
same,GI50,CAKI-1,> 100 µM (inactive)
same,GI50,U-251,> 100 µM (inactive)
same,GI50,EKVX,> 100 µM (inactive)
same,GI50,NCI-H23,> 100 µM (inactive)
same,GI50,SR,> 100 µM (inactive)
same,GI50,Malme-3M,> 100 µM (inactive)
same,GI50,UO-31,> 100 µM (inactive)
same,GI50,SF-295,> 100 µM (inactive)
same,GI50,HT-29,> 100 µM (inactive)
same,GI50,SK-MEL-28,> 100 µM (inactive)
same,GI50,MDA-MB-435,> 100 µM (inactive)
same,GI50,A498,> 100 µM (inactive)
same,GI50,UACC-62,> 100 µM (inactive)
same,GI50,Hs-578T,> 100 µM (inactive)
same,GI50,DU-145,> 100 µM (inactive)
same,GI50,OVCAR-5,> 100 µM (inactive)
same,GI50,K562,> 100 µM (inactive)
same,GI50,BT-549,> 100 µM (inactive)
same,GI50,KM12,> 100 µM (inactive)
same,GI50,HCT-116,> 100 µM (inactive)
same,GI50,M14,> 100 µM (inactive)
same,GI50,NCI-H460,> 100 µM (inactive)
same,GI50,A549,> 100 µM (inactive)
same,GI50,SNB-75,> 100 µM (inactive)
same,GI50,SNB-19,> 100 µM (inactive)
same,GI50,MDA-MB-231,> 100 µM (inactive)
same,GI50,NCI/ADR-RES,91.8 µM (inactive)
